Converted amounts (≈) assume the structure as drawn.
Assays:
trypsin = experiment: Protease stability, radial diffusion assay after tryptic digestion; type: in vitro ADME; settings: trypsin 0.2 μg/mL in PBS, 37 °C (24 h, 4 h elsewhere in the source), clearance zones against E.coli and S.aureus
Procedure: The protease stability of triazine based polymers (TZP3 and TZP5) was performed by the radial diffusion assay as described previously. Briefly, a bacteria suspension (2×10^6 CFU/mL in LB) was mixed with 0.7% agarose. This mixture was poured into a 10-cm petri dish, and it dispersed rapidly. […] The reaction was stopped by freezing with liquid nitrogen, after which 10 μL aliquots were placed in each circle paper, put on the agarose plates, and then incubated at 37 °C overnight. The diameters of the bacterial clearance zones surrounding the circle paper were measured for the quantitation of inhibitory activities.

[1] = system: Multidrug-resistant Pseudomonas aeruginosa (MDRPA) CCARM 2109; type: cell-based; settings: broth microdilution, 37 °C, 18–22 h
Procedure: (§1) The bacterial strains employed in the experiment were Escherichia coli (KCTC 1682), Pseudomonas aeruginosa (KCTC 1637), Bacillus subtilis (KCTC 3068), Staphylococcus aureus (KCTC 1621), three methicillin-resistant Staphylococcus aureus (CCARM 3089, 3090 and 3095), two multidrug-resistant Pseudomonas aeruginosa (CCARM 2095 and 2109) and vancomycin-resistant Enterococcus faecium (ATCC 51559). The antimicrobial activities of polymers were determined by the broth microdilution method, and the procedures were used as previously reported. Briefly, bacteria grown to mid-logarithmic phase in LB broth were diluted to 2 × 10^6 CFU/mL in 1% peptone and added to serial two-fold dilutions of different polymers ranging from 1 to 64 μg/mL. The plates were incubated in a shaking incubator at 37 °C for 18–22 h. The minimum inhibitory concentration (MIC) was determined by confirming the absence of bacterial growth both visually and spectrophotometrically by OD600 readings taken by a microplate ELISA reader (Molecular Devices, Sunnyvale, CA, USA). All measurements were performed three times.

[2] = system: Methicillin-resistant Staphylococcus aureus (MRSA) CCARM 3090; type: cell-based; settings: broth microdilution, 37 °C, 18–22 h
Procedure: as §1

[3] = system: Methicillin-resistant Staphylococcus aureus (MRSA) CCARM 3089; type: cell-based; settings: broth microdilution, 37 °C, 18–22 h
Procedure: as §1

[4] = system: Methicillin-resistant Staphylococcus aureus (MRSA) CCARM 3095; type: cell-based; settings: broth microdilution, 37 °C, 18–22 h
Procedure: as §1

[5] = system: Multidrug-resistant Pseudomonas aeruginosa (MDRPA) CCARM 2095; type: cell-based; settings: broth microdilution, 37 °C, 18–22 h
Procedure: as §1

## CC[C@H](C)[C@H](NC(=O)CN)C(=O)NCC(=O)N[C@@H](C)C(=O)N[C@H](C(=O)N[C@@H](CC(C)C)C(=O)N[C@@H](CCCCN)C(=O)N[C@H](C(=O)N[C@@H](CC(C)C)C(=O)N[C@H](C(=O)N[C@H](C(=O)NCC(=O)N[C@@H](CC(C)C)C(=O)N1CCC[C@H]1C(=O)N[C@@H](C)C(=O)N[C@@H](CC(C)C)C(=O)N[C@H](C(=O)N[C@@H](CO)C(=O)N[C@@H](Cc1c[nH]c2ccccc12)C(=O)N[C@H](C(=O)N[C@@H](CCCCN)C(=O)N[C@@H](CCCNC(=N)N)C(=O)N[C@@H](CCCCN)C(=O)N[C@@H](CCCNC(=N)N)C(=O)N[C@@H](CCC(N)=O)C(=O)N[C@@H](CCC(N)=O)C(N)=O)[C@@H](C)CC)[C@@H](C)CC)[C@@H](C)O)[C@@H](C)O)C(C)C)C(C)C [melittin, reference compound]
trypsin
  antibacterial activity after incubation with trypsin: lose its antibacterial activity entirely
[1]
  MIC MDRPA CCARM 2109: 8 µg/mL (≈ 2.81 µM)
[2]
  MIC MRSA CCARM 3090: 8 µg/mL (≈ 2.81 µM)
[3]
  MIC MRSA CCARM 3089: 8 µg/mL (≈ 2.81 µM)
[4]
  MIC MRSA CCARM 3095: 16 µg/mL (≈ 5.62 µM)
[5]
  MIC MDRPA CCARM 2095: 8 µg/mL (≈ 2.81 µM)

Reference: article PMC6805867, “Amphiphilic Triazine Polymer Derivatives as Antibacterial And Anti-atopic Agents in Mice Model” (Scientific Reports, 2019)
